From patent US5057427A, “Method for resolution of stereoisomers” (Sepracor, Inc., priority 1988, dated 1991)
Counter-ions that a name gives are not always drawn. Values belong to the compound of their own block, whether it stands above or below them.

Experiments:
[1] = cited from earlier work
[2] = test system: Protease XXIII: from Aspergillus oryzae (Enzyme A); assay: Homogeneous aqueous enzymatic resolution (ester hydrolysis) with Enzyme A; conditions: for % e.e.: acid product
Description: 10.0 millimole (mmol) of ibuprofen substrate ester 1 (the methyl sulfonate derivative) was dissolved in 100 ml of 0.2 M phosphate buffer of the appropriate cation (sodium or potassium, to be the same as the substrate counterion) at pH 7.0. 100 mg of enzyme A, as the
commercial preparation, was added directly to this solution, and the reaction mixture was capped and then shaken briefly until all the enzyme preparation had dispersed or dissolved. The reaction mixture was then allowed to stand at ambient temperature (20°-22° C.) for 20 hours. […] The combined organic layers were backwashed twice with one volume of water, once with one volume of saturated NaCl solution, and then dried over MgSO4.
Evaporation of the ether under reduced pressure left the resolved ibuprofen acid product; no other purification was performed. The optical rotation was measured in EtOH at a concentration c=1.0 for the ibuprofen acid product.
In this Example, 0.010 mol of ibuprofen ester 3 (the propyl sulfonate derivative) was dissolved in 100 ml 0.2 M sodium phosphate buffer at pH 7.8, and 150 mg of the commercial enzyme A preparation was added. The reaction was then handled as described for Examples 6.2.1.1-6.2.1.7.
In this Example, 0.010 mol of ibuprofen ester 2 (the ethyl sulfonate ester in the form of its potassium salt) were dissolved in 125 ml of 0.2 M sodium phosphate buffer at pH 7.0, and 150 mg of enzyme A was added to the reaction mixture as the commercially supplied preparation. The reaction was allowed to proceed for 18 hours, and the resulting product mixture was then worked-up as described above for Examples 6.2.1.1-6.2.1.7.
150 mg of Protease XXIII (A), as the commercially available preparation, was added to the reaction mixture, the reaction vessel was capped, and the entire heterogeneous reaction mixture was shaken in a wrist-action shaker for 18 hours. […] This mixture was then extracted twice with 200 ml of diethyl ether. The combined organic layers were backwashed twice with one volume of water, once with one volume of saturated NaCl, and the organic phase was then dried over MgSO4. Evaporation of the ether under reduced pressure left the resolved naproxen acid. No further purification was performed. The optical rotation of the product was measured in CHCl3 at a concentration c=1.0.
0.010 mol of naproxen ester 8 (the potassium salt of the ethyl sulfonate ester) was dispersed in 125 ml of 0.2 M sodium phosphate buffer at pH 7.8. 150 mg of enzyme A, as the commercially available preparation, were added, and the reaction handled as described in Example 6.2.1.1.
0.010 mol of ibuprofen ester 6 (the compound) were dissolved in 100 ml of 0.2 M sodium phosphate buffer at pH 7.0. 100 mg of enzyme A was added as the commercially available preparation, and the reaction handled as described above in Examples 6.2.1.1-6.2.1.7.
2.0 gm (0.0058 mole) of naproxen ester 9 (the sulfomethyl compound) was dissolved in 400 ml of 50 mM sodium phosphate buffer at pH 7.5. To the reaction were added 100 mg of Protease XXIII (A) as the commercially available preparation. After the enzyme had dissolved, the reaction mixture was incubated at 25 degrees for 16 hours. The reaction mixture was then acidified to pH 1-2 by the careful dropwise addition of concentrated HCl, and then it was extracted with ether (3×150 ml). The aqueous layer was retained. The combined organic layers were backwashed with water (2×100 ml), and these aqueous washings were added to the previously retained aqueous layer of the reaction. The ether layer was then washed once with 100 ml of brine, and dried over MgSO4.

[3] = target: T1, Protease VIII: "Subtilopeptidase A" (subtilisin Carlsberg) (Enzyme B) (Bacillus licheniformis, UniProt P00780); assay: Homogeneous aqueous enzymatic resolution (ester hydrolysis) with Enzyme B; format: biochemical; conditions: for % e.e.: acid product
T1 sequence (P00780 106-379): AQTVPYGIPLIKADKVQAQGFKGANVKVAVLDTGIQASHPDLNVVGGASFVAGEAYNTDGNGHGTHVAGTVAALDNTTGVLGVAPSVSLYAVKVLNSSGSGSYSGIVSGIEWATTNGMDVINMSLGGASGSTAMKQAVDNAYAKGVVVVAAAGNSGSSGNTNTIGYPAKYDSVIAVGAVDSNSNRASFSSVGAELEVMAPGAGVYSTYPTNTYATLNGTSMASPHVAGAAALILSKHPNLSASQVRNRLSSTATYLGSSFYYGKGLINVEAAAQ

[4] = target: T2, Protease XVI: from Bacillus subtilis (Enzyme C) (Bacillus subtilis, UniProt P04189); assay: Homogeneous aqueous enzymatic resolution (ester hydrolysis) with Enzyme C; format: biochemical; conditions: acid product; 100 mg enzyme C, 10 mmol ester in 100 ml 0.2 M phosphate buffer pH 7.0, 20-22° C., 20 hours
T2 sequence (P04189 107-381): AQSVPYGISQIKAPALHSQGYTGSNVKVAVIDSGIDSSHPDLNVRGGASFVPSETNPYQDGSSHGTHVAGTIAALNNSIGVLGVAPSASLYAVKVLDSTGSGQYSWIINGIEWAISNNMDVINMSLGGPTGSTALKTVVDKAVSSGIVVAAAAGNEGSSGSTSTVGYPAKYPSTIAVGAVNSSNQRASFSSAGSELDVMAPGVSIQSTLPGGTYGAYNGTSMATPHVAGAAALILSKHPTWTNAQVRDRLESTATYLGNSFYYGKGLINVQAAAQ

[5] = test system: protease Prozyme 6 (Enzyme F); assay: Homogeneous aqueous enzymatic resolution (ester hydrolysis) with Enzyme F; format: biochemical, Asperqillus oryzae; conditions: 100 mg Prozyme 6 (F), 10 mmol ester in 100 ml 0.2 M buffer pH 7.0, 25° C., 18 hours
Description: (Prozyme 6) (F) added. The enzymatic reaction mixtures were capped and briefly shaken until all the substrate had dissolved, and the enzyme had completely dissolved or dispersed. […] Evaporation of the ether left a white solid. Rotations were measured at c=1 in CHCl3.
The enzymatic reaction mixtures were capped and briefly shaken until all the substrate had dissolved, and the enzyme had completely dissolved or dispersed. […] Evaporation of the ether left a white solid. Rotations were measured at c=1 in CHCl3.
The reaction was started by adding 100 mg of the protease (F) from the fungus Asperqillus oryzae (from Amano Enzyme Corporation, Prozyme 6, 60,000 units per mg of solid).
After 20 hours at room temperature, the solution was acidified to pH 2 and extracted with 3 volumes of diethyl ether. The aqueous phase was saved for subsequent workup. The ether phase was washed with two volumes of distilled water and then one volume of saturated sodium chloride, and then it was dried over MgSO4 and subsequently evaporated to dryness. The resolved ibuprofen product recovered was 930 mg of white powder, indicating 45% conversion of racemic ester to acid. The optical rotation was -0.580° (measured at c=1 in ethanol), indicating the R isomer of ibuprofen.
35 mg of protease Enzyme F, as the commercial preparation Prozyme 6, were added to the aqueous solution. The reaction flask was capped, and briefly shaken until all the enzyme had dissolved or dispersed. […] The resulting mixture was diluted with one volume of water and was extracted with diethyl ether (2 times 200 ml). The ether layers were combined and backwashed with water (2 times 200 ml), saturated NaCl solution (200 ml), and then dried over MgSO4.
In this control run, a 0.5 M ester solution of (1) was prepared in 325 ml of 0.1 M sodium phosphate buffer (pH 7.0). The reaction was started by adding 3 gm of the above enzyme (F). The pH was controlled at 7.0 with 8.22 M sodium hydroxide. After 6.49 hours at 30° C., 6.63 ml of hydroxide were added, indicating 37.7% conversion. […]

[6] = target: T3, Protease XXVII: "Nagarse" (Enzyme D) (Bacillus amyloliquefaciens, UniProt P00782); assay: Homogeneous aqueous enzymatic resolution (ester hydrolysis) with Enzyme D; format: biochemical; conditions: 150 mg enzyme D, 0.010 mol ester in 100 ml 0.2 M sodium phosphate buffer pH 7.8
T3 sequence (P00782 108-382): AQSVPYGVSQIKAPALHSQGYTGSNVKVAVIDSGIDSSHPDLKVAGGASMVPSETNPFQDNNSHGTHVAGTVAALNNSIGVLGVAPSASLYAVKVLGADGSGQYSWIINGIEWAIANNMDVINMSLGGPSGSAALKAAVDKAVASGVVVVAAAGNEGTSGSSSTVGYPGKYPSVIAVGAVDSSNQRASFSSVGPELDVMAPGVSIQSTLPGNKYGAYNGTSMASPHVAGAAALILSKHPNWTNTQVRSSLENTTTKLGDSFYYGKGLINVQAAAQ

Pig Liver Esterase (E) = assay: Homogeneous aqueous enzymatic resolution (ester hydrolysis) with Enzyme E; format: biochemical; conditions: 30 mg Pig Liver Esterase (E), 0.010 mol ester in 100 ml 0.2 M sodium phosphate buffer pH 7.8
[7] = 100 mg Protease XXIII (A), pH 7.5, 25 degrees, 16 hours
[8] = 100 mg enzyme A, 10 mmol ester in 100 ml 0.2 M phosphate buffer pH 7.0, 20-22° C., 20 hours
[9] = 100 mg enzyme B, 10 mmol ester in 100 ml 0.2 M phosphate buffer pH 7.0, 20-22° C., 20 hours
[10] = 150 mg enzyme A, 0.010 mol ester in 100 ml 0.2 M sodium phosphate buffer pH 7.8
[11] = 150 mg enzyme B, 0.010 mol ester in 100 ml 0.2 M sodium phosphate buffer pH 7.8
[12] = 100 mg enzyme A, 10.0 mmol ester in 100 ml 0.2 M buffer pH 7.0, 25° C., 18 hours
[13] = 100 mg enzyme B, 10.0 mmol ester in 100 ml 0.2 M Na3 PO4 buffer pH 7.0, 25° C., 18 hours

SMILES: O=C1CC[C@H](N2C(=O)c3ccccc3C2=O)C(=O)N1 [L-thalidomide]
teratogenicity ([1]; in vivo): potent teratogen

SMILES: COc1ccc2cc(C(C)C(=O)OCS(=O)(=O)O)ccc2c1 (centres unmarked) [Compound 9, Sodium Salt of Sulfomethyl Ester of 2-(6-Methoxy-2-naphthyl)propanoic Acid]
conversion (enzymatic hydrolysis) ([2]; 100 mg Protease XXIII (A), 2.0 gm ester in 400 ml 50 mM sodium phosphate buffer pH 7.5, 25 degrees, 16 hours): 18%
enantiomeric excess of R isomer (acid product) [2, 7]: 61.2%
enantiomeric excess of S isomer (acid from remaining ester after hydrolysis at pH 12) [2, 7]: 45.5%

SMILES: CC(Cl)C(=O)OCCCS(=O)(=O)O (centres unmarked) [Compound 13, Potassium Salt of 3-Sulfopropyl Ester of 2-Chloropropanoic Acid]
conversion as measured by titrimetry (reaction stopped) ([3]; 20 mg subtilisin protease (B), 8.05 gm ester in 300 ml 0.1 M potassium phosphate buffer pH 7.0): 25%

SMILES: COc1ccc2cc(C(C)C(=O)OCCC[N+](C)(C)C)ccc2c1 (centres unmarked) [Compound 12, Methyl Sulfate Salt of 3-(N,N,N-Trimethylammonium)propyl Ester of 2-(6-Methoxy-2-naphthyl)propanoic Acid]
% CONVERSION [5]: 34.0%

SMILES: O=C1CCC(N2C(=O)c3ccccc3C2=O)C(=O)N1 [D-enantiomer of thalidomide, thalidomide]
sedative use ([1]; prescribed for the control of morning sickness during pregnancy): safe and effective sedative

SMILES: COc1ccc2cc(C(C)C(=O)OCC[N+](C)(C)C)ccc2c1 (centres unmarked) [Compound 11, Methyl Sulfate Salt of 2-(N,N,N-Trimethylammonium)ethyl Ester of 2-(6-Methoxy-2-naphthyl)propanoic Acid]
% e.e. ([5]; acid product): 34.0%

SMILES: CC(CSC(=O)c1ccccc1)C(=O)OCS(=O)(=O)O (racemic) [Compound 16, Potassium Salt of the Sulfomethyl Ester of (+)-S-3-Benzoylthio-2-methylpropanoic Acid]
% CONVERSION [2, 12]: 53%
% e.e. [2, 12]: 3%
% CONVERSION [3, 13]: 26%
% e.e. [3, 13]: 10%

More lines, now with the values ahead:

% e.e. [4]: 61.7%
% CONVERSION [2, 8]: 43.2%
% e.e. [2, 8]: 97.4%
% CONVERSION [3, 9]: 20.0%
% e.e. [3, 9]: 92.1%
SMILES: CC(C)Cc1ccc(C(C)C(=O)OCCCCS(=O)(=O)O)cc1 (centres unmarked) [Compound 4, Potassium Salt of 4-Sulfobutyl Ester of 2-(4-Isobutylphenyl)propanoic Acid]

% e.e. [4]: 75.6%
SMILES: CC(C)Cc1ccc(C(C)C(=O)OCCOP(=O)(O)O)cc1 (centres unmarked) [Compound 5, Disodium Salt of the Phosphoric Acid Ester of the 2-Hydroxyethyl Ester of 2-(4-Isobutylphenyl)propanoic Acid]

% CONVERSION [2, 8]: 24.3%
% e.e. [2, 8]: 96.5%
SMILES: CC(C)Cc1ccc(C(C)C(=O)OCCCOS(=O)(=O)O)cc1 (centres unmarked) [Compound 6, Potassium Salt of the Sulfuric Acid Ester of 3-Hydroxypropyl Ester of 2-(4-Isobutylphenyl)propanoic Acid]

% CONVERSION [2, 8]: 30.1%
% e.e. [2, 8]: > 99%
SMILES: CC(C)Cc1ccc(C(C)C(=O)OCC[N+](C)(C)C)cc1 (centres unmarked) [Compound 10, Iodide Salt of 2-(N,N,N-Trimethylammonium)ethyl Ester of 2-(4-Isobutylphenyl)propanoic Acid]

% CONVERSION [2, 8]: 22.3%
% e.e. [2, 8]: 93.3%
SMILES: CC(C)Cc1ccc(C(C)C(=O)OCCS(=O)(=O)O)cc1 (centres unmarked) [Compound 2, Sodium Salt of 2-Sulfoethyl Ester of 2-(4-Isobutylphenyl)propanoic Acid]

% CONVERSION [6]: 32.0%
% e.e. ([6]; acid product): 91.0%
% CONVERSION [2, 8]: 50.0%
% CONVERSION [2, 10]: 47.1%
conversion of the racemic ester to acid ([2]; 1.00 gm protease (A), about 1 M ester, 40 ml, pH 7.0, room temperature, 23.9 hours, by NaOH titration): 29%
% e.e. [2, 8]: 84.2%
% e.e. [2, 10]: 97.7%
% CONVERSION [3, 11]: 36.4%
% e.e. [3, 11]: 98.6%
% CONVERSION (Pig Liver Esterase (E)): 12.1%
% e.e. (Pig Liver Esterase (E); acid product): 88.0%
SMILES: CC(C)Cc1ccc(C(C)C(=O)OCCCS(=O)(=O)O)cc1 (centres unmarked) [Compound 3, Potassium Salt of 3-Sulfopropyl Ester of 2-(4-Isobutylphenyl)propanoic Acid]
